Data: ChEMBL document CHEMBL4219062, “Design, synthesis and evaluation of γ-turn mimetics as LSD1-selective inhibitors” (Bioorg Med Chem, 2018)
Blank lines part the entries; values can stand above or below the compound they belong to. Calls of active or inactive are those of the source. No cut-off for these calls is given here.

Tests used:
A549 [1] = assay: cells; conditions: Homo sapiens, A549, 72 h, read-out: GI
A549 [2] = assay: cells; conditions: Homo sapiens, A549, 72 h
Description: Growth inhibition of human A549 cells after 72 hrs by Alamarblue assay

[3] = target: T1, Amine oxidase [flavin-containing] A (Homo sapiens, UniProt P21397); assay: biochemical
T1 sequence (P21397 whole entry): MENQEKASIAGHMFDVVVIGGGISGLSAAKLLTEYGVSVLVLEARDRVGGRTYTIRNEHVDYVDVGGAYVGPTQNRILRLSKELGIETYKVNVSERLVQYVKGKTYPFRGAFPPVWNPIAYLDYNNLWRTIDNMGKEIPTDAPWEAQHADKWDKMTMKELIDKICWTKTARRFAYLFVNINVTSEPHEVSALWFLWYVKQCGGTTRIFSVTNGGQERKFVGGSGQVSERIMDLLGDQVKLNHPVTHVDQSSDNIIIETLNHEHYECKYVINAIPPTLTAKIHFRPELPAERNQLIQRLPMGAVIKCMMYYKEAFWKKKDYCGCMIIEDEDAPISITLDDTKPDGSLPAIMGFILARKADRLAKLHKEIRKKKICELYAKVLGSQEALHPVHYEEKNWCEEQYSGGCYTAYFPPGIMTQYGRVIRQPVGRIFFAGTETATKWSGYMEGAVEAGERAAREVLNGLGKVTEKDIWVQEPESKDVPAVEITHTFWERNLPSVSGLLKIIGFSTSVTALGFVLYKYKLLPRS
Description: Inhibition of recombinant human MAO-A expressed in baculovirus infected BTI insect cells using (4S)-4,5-dihydro-2-(6-hydroxybenzothiazolyl)-4-thiazolecarboxylic acid as substrate measured after 60 mins by chemiluminescence assay

[4] = target: T2, Amine oxidase [flavin-containing] B (Homo sapiens, UniProt P27338); assay: biochemical
T2 sequence (P27338 whole entry): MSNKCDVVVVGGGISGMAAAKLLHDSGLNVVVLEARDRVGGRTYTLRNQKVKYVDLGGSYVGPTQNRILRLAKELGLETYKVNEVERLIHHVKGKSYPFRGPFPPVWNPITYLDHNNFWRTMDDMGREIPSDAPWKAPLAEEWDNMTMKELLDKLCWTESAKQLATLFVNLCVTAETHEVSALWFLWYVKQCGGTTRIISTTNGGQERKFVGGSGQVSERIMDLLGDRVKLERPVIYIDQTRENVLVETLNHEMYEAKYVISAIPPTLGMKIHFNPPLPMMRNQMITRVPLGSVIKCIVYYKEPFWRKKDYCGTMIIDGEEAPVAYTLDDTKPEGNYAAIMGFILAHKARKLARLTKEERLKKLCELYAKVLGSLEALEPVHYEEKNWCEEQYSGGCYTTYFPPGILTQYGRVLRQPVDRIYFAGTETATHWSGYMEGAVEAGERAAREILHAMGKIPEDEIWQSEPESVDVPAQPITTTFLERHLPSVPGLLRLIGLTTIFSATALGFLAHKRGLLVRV
Description: Inhibition of recombinant human MAO-B expressed in baculovirus infected BTI insect cells using (4S)-4,5-dihydro-2-(6-hydroxybenzothiazolyl)-4-thiazolecarboxylic acid as substrate measured after 60 mins by chemiluminescence assay

A549 [5] = conditions: Homo sapiens, 10 uM
A549 [6] = assay: Cell cycle arrest in human A549 cells assessed as increase in G1 population at 2 uM measured after 24 hrs by propidium iodide staining based flow cytometric analysis; assay type: functional
A549 [7] = assay: Cell cycle arrest in human A549 cells assessed as decrease in S population at 2 uM measured after 24 hrs by propidium iodide staining based flow cytometric analysis; assay type: functional
A549 [8] = assay: Cell cycle arrest in human A549 cells assessed as accumulation at sub-G1 population at 6 to 8 uM by propidium iodide staining based flow cytometric analysis; assay type: functional; conditions: TDE = time-dependent effect

- GI50 (A549 [2]): 8.6 µM
- IC50 [3]: > 100 µM
- IC50 [4]: > 100 µM
Structure (SMILES): O=C(N[C@@H](CCCCN[C@@H]1C[C@H]1c1ccccc1)C(=O)NCc1cccc(Cl)c1)c1ccc(-c2ccccc2)cc1
- inhibition of growth at 10 µM (A549 [1]): 100%

Structure (SMILES): O=C(N[C@@H](CCCCN[C@@H]1C[C@H]1c1ccccc1)C(=O)NCc1ccccc1)c1ccccc1
- growth inhibition (GI) (A549 [5]): inactive

Structure (SMILES): CNS(=O)(=O)c1cccc(-c2ccc([C@@H]3C[C@H]3NCCCCC3C(=O)N(Cc4ccccc4)CCN(c4ccccc4)C3=O)cc2)c1 (relative stereo)
- inhibition of growth at 10 µM (A549 [1]): 16%

- GI50 (A549 [2]): 5.8 µM
- IC50 [3]: > 100 µM
- IC50 [4]: > 100 µM
Structure (SMILES): O=C1C(CCCCN[C@@H]2C[C@H]2c2ccccc2)C(=O)N(c2ccc(-c3ccccc3)cc2)CCN1Cc1cccc(Cl)c1 (relative stereo)
- Activity (A549 [6]): Active
- Activity (A549 [7]): Active
- Activity (A549 [8]): Tde
- inhibition of growth at 10 µM (A549 [1]): 100%

Structure (SMILES): CNC(=O)c1cccc(-c2ccc([C@@H]3C[C@H]3NCCCCC3C(=O)N(Cc4cccc(Cl)c4)CCN(c4ccc(-c5ccccc5)cc4)C3=O)cc2)c1 (relative stereo)
- inhibition of growth at 10 µM (A549 [1]): 26%

Structure (SMILES): CNC(=O)c1cccc(-c2ccc([C@@H]3C[C@H]3NCCCCC3C(=O)N(Cc4ccccc4)CCN(c4ccccc4)C3=O)cc2)c1 (relative stereo)
- inhibition of growth at 10 µM (A549 [1]): 26%

Structure (SMILES): COc1cccc(-c2ccc([C@@H]3C[C@H]3NCCCCC3C(=O)N(Cc4ccccc4)CCN(c4ccccc4)C3=O)cc2)c1 (relative stereo)
- inhibition of growth at 10 µM (A549 [1]): 16%
